Among the data in patent US12172990B2 (Constellation Pharmaceuticals, Inc., priority 2018, dated 2024) are IC50 values, retold here.

The target of experiment [1] is human TREX2 (residues M44-A279) (Homo sapiens (Human), UniProt Q9BQ50). Put plainly: TREX2 Biochemical Assay (fluorescence assay measuring degradation of dsDNA substrate). The settings on record: 2.5 nM TREX2, 60 nM dsDNA substrate, 25 minutes at room temperature. Summed up: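 Final conditions: 2.5 nM His-Tev-tagged TREX2 (E. coli-expressed), 60 nM fluorophore/quencher-labelled dsDNA, 50 mM Tris pH 7.4, 150 mM NaCl, 100 mM MgCl2, 1% DMSO; 10-point compound dose-response. Incubated 25 min at room temperature, then EDTA-quenched; fluorescence read at ex 570/em 615 nm. IC50 from four-parameter fit against pre-quenched and no-inhibitor controls.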

The target of experiment [2] is full length human TREX1 (Homo sapiens (Human), UniProt Q9NSU2). The experiment is described as follows: TREX1 Biochemical Assay (fluorescence assay measuring degradation of dsDNA substrate). The settings on record: 150 pM TREX1, 60 nM dsDNA substrate, 25 minutes at room temperature. Summed up:
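His-Tev-tagged full-length human TREX1 expressed in E. coli, 150 pM final, with 60 nM TEX615/quencher-labelled 9-mer dsDNA in Tris pH 7.4, NaCl, DTT, BSA, Tween-20, MgCl2 and 1.0% DMSO; 25 min at room temperature, EDTA-quenched. Fluorescence 615 nm (excitation 570 nm); 10-point IC50 by four-parameter fit against pre-quenched and no-inhibitor controls.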

full length human TREX1, sequence (Q9NSU2 whole entry): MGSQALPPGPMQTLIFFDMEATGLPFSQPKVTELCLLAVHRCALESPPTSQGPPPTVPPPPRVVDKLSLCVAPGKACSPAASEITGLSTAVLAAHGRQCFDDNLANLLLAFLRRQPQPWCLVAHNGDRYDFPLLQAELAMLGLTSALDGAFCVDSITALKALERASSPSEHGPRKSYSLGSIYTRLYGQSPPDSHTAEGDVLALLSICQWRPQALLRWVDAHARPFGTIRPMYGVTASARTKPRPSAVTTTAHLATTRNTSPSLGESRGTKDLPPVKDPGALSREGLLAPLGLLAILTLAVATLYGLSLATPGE
human TREX2 (residues M44-A279), sequence (Q9BQ50 whole entry, the tested form may be a part): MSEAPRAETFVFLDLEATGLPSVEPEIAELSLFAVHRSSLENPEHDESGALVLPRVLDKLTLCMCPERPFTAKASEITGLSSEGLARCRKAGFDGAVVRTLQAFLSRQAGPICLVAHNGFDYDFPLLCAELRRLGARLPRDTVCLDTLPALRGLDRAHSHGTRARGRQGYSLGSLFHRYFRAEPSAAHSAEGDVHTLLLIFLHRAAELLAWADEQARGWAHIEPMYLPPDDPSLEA

The IC50 is the midpoint of a concentration-inhibition curve. Lower therefore signals higher potency. In the case of `COc1cccc(C(=O)N2CCCC(c3nc(C(=O)Nc4cnoc4)c(O)c(=O)n3C)C2)c1` (centres unmarked) [Example 48, 5-hydroxy-N-(isoxazol-4-yl)-2-(1-(3-methoxybenzoyl)piperidin-3-yl)-1-methyl-6-oxo-1,6-dihydropyrimidine-4-carboxamide], the IC50 in experiment [1] is 1000 to 10000 nM; in experiment [2], 100 to 1000 nM.
The corresponding values for `Cc1cc(C)cc(-c2nc(C(=O)Nc3cnoc3)c(O)c(=O)n2C)c1` [Example 25, 2-(3,5-dimethylphenyl)-5-hydroxy-N-(isoxazol-4-yl)-1-methyl-6-oxo-1,6-dihydropyrimidine-4-carboxamide] are 1000 to 10000 nM and 100 to 1000 nM.
The corresponding values for `Cn1c(-c2cccnc2)nc(C(=O)Nc2cnoc2)c(O)c1=O` [Example 29, 5-hydroxy-N-(isoxazol-4-yl)-1-methyl-6-oxo-2-(pyridin-3-yl)-1,6-dihydropyrimidine-4-carboxamide] are 10000 to 100000 nM and 1000 to 10000 nM.
In the case of `Cn1c(N2CCC[C@H]2c2ccccc2)nc(C(=O)Nc2cnoc2)c(O)c1=O` [Example 112, (S)-5-hydroxy-N-(isoxazol-4-yl)-1-methyl-6-oxo-2-(2-phenylpyrrolidin-1-yl)-1,6-dihydropyrimidine-4-carboxamide], the IC50 in experiment [1] is 1000 to 10000 nM; in experiment [2], less than 100 nM.
`Cc1cc(C(=O)O)cc(-c2nc(C(=O)Nc3cnoc3)c(O)c(=O)n2C)c1` [Example 51, 3-(5-hydroxy-4-(isoxazol-4-ylcarbamoyl)-1-methyl-6-oxo-1,6-dihydropyrimidin-2-yl)-5-methylbenzoic acid]: the IC50 in experiment [1] was in the range of 1000 to 10000 nM; in experiment [2] it was 100 to 1000 nM.
The corresponding values for `Cn1nc(CCO)c(-c2nc(C(=O)Nc3cnoc3)c(O)c(=O)n2C)n1` [Example 73, 5-hydroxy-2-(5-(2-hydroxyethyl)-2-methyl-2H-1,2,3-triazol-4-yl)-N-(isoxazol-4-yl)-1-methyl-6-oxo-1,6-dihydropyrimidine-4-carboxamide] are 10000 to 100000 nM and 100 to 1000 nM.
Turning to `Cn1c(N2CC[C@H](c3ccccc3)C2)nc(C(=O)Nc2cnoc2)c(O)c1=O` [Example 108, (R)-5-hydroxy-N-(isoxazol-4-yl)-1-methyl-6-oxo-2-(3-phenylpyrrolidin-1-yl)-1,6-dihydropyrimidine-4-carboxamide], the values for the concentration for half-maximal inhibition (IC50) in experiment [1] and in experiment [2] were 10000 to 100000 nM and less than 100 nM, respectively.
As to `Cn1c(Cc2ccccn2)nc(C(=O)Nc2cnoc2)c(O)c1=O` [Example 26, 5-hydroxy-N-(isoxazol-4-yl)-1-methyl-6-oxo-2-(pyridin-2-ylmethyl)-1,6-dihydropyrimidine-4-carboxamide], the IC50 was in the range of 10000 to 100000 nM in experiment [1] and 1000 to 10000 nM in experiment [2].
Take `Cn1c(N2CC[C@H](C(N)=O)C2)nc(C(=O)Nc2cnoc2)c(O)c1=O` [Example 117, (S)-2-(3-carbamoylpyrrolidin-1-yl)-5-hydroxy-N-(isoxazol-4-yl)-1-methyl-6-oxo-1,6-dihydropyrimidine-4-carboxamide]: the IC50 lay within 10000 to 100000 nM in experiment [1] and 100 to 1000 nM in experiment [2].
With `Cn1c(-c2cccc(Br)c2)nc(C(=O)Nc2cnoc2)c(O)c1=O` [Example 10, 2-(3-bromophenyl)-5-hydroxy-N-(isoxazol-4-yl)-1-methyl-6-oxo-1,6-dihydropyrimidine-4-carboxamide], the values for the IC50 in experiment [1] and in experiment [2] were 1000 to 10000 nM and less than 100 nM, respectively.
As to `Cn1c(-c2ccccc2-c2cccnc2)nc(C(=O)Nc2cnoc2)c(O)c1=O` [Example 66, 5-hydroxy-N-(isoxazol-4-yl)-1-methyl-6-oxo-2-(2-(pyridin-3-yl)phenyl)-1,6-dihydropyrimidine-4-carboxamide], the IC50 was in the range of 10000 to 100000 nM in experiment [1] and 100 to 1000 nM in experiment [2].
In the same order, the values of `Cn1c(-c2cccc(Br)c2CCO)nc(C(=O)Nc2cnoc2)c(O)c1=O` [Example 78, 2-(3-bromo-2-(2-hydroxyethyl)phenyl)-5-hydroxy-N-(isoxazol-4-yl)-1-methyl-6-oxo-1,6-dihydropyrimidine-4-carboxamide] are 1000 to 10000 nM and less than 100 nM.
In the same order, the values of `C[C@H](Cc1ccccc1)c1nc(C(=O)Nc2cnoc2)c(O)c(=O)n1C` [Example 79, (R)-5-hydroxy-N-(isoxazol-4-yl)-1-methyl-6-oxo-2-(1-phenylpropan-2-yl)-1,6-dihydropyrimidine-4-carboxamide] are 1000 to 10000 nM and less than 100 nM.
The corresponding values for `Cn1c(C2CCCN(C(=O)C3CCC(=O)NC3)C2)nc(C(=O)Nc2cnoc2)c(O)c1=O` (centres unmarked) [Example 56, 5-hydroxy-N-(isoxazol-4-yl)-1-methyl-6-oxo-2-(1-(6-oxopiperidine-3-carbonyl)piperidin-3-yl)-1,6-dihydropyrimidine-4-carboxamide] are 10000 to 100000 nM and 100 to 1000 nM.
As to `Cn1c(C2CCCN(C(=O)CCc3ccccc3)C2)nc(C(=O)Nc2cnoc2)c(O)c1=O` (centres unmarked) [Example 43, 5-hydroxy-N-(isoxazol-4-yl)-1-methyl-6-oxo-2-(1-(3-phenylpropanoyl)piperidin-3-yl)-1,6-dihydropyrimidine-4-carboxamide], the IC50 in experiment [1] was 1000 to 10000 nM; in experiment [2], less than 100 nM.
Regarding `Cn1c(C2CCCN(C(=O)c3cncnc3)C2)nc(C(=O)Nc2cnoc2)c(O)c1=O` (centres unmarked) [Example 58, 5-hydroxy-N-(isoxazol-4-yl)-1-methyl-6-oxo-2-(1-(pyrimidine-5-carbonyl)piperidin-3-yl)-1,6-dihydropyrimidine-4-carboxamide], the IC50 lay in the range of 1000 to 10000 nM in experiment [1] and 100 to 1000 nM in experiment [2].
The corresponding values for `COC(=O)c1cc(C)cc(-c2nc(C(=O)Nc3cnoc3)c(O)c(=O)n2C)c1` [Example 53, methyl 3-(5-hydroxy-4-(isoxazol-4-ylcarbamoyl)-1-methyl-6-oxo-1,6-dihydropyrimidin-2-yl)-5-methylbenzoate] are 1000 to 10000 nM and 100 to 1000 nM.
Regarding `Cn1c(C2CC2)nc(C(=O)Nc2cnoc2)c(O)c1=O` [Example 3, 2-cyclopropyl-5-hydroxy-N-(isoxazol-4-yl)-1-methyl-6-oxo-1,6-dihydropyrimidine-4-carboxamide], the half-inhibitory concentration (IC50) is 10000 to 100000 nM in experiment [1] and 100 to 1000 nM in experiment [2].
On to `Cn1c(N2CC(Oc3ccccc3)C2)nc(C(=O)Nc2cnoc2)c(O)c1=O` [Example 122, 5-hydroxy-N-(isoxazol-4-yl)-1-methyl-6-oxo-2-(3-phenoxyazetidin-1-yl)-1,6-dihydropyrimidine-4-carboxamide], for which the values for the IC50 in experiment [1] and in experiment [2] were 10000 to 100000 nM and 100 to 1000 nM, respectively.
On to `Cn1c(C2CCCN(C(=O)Nc3ccccc3)C2)nc(C(=O)Nc2cnoc2)c(O)c1=O` (centres unmarked) [Example 65, 5-hydroxy-N-(isoxazol-4-yl)-1-methyl-6-oxo-2-(1-(phenylcarbamoyl)piperidin-3-yl)-1,6-dihydropyrimidine-4-carboxamide], for which the results for the IC50 in experiment [1] and in experiment [2] were 1000 to 10000 nM and 100 to 1000 nM, respectively.
With `Cn1c([C@H]2CCN(C(=O)c3ccc(Cl)cc3)C2)nc(C(=O)Nc2cnoc2)c(O)c1=O` [Example 85, (S)-2-(1-(4-chlorobenzoyl)pyrrolidin-3-yl)-5-hydroxy-N-(isoxazol-4-yl)-1-methyl-6-oxo-1,6-dihydropyrimidine-4-carboxamide], the IC50 lay within 10000 to 100000 nM in experiment [1] and 100 to 1000 nM in experiment [2].
On to `CC(=O)N1CCCC(c2nc(C(=O)Nc3cnoc3)c(O)c(=O)n2C)C1` (centres unmarked) [Example 64, 2-(1-acetylpiperidin-3-yl)-5-hydroxy-N-(isoxazol-4-yl)-1-methyl-6-oxo-1,6-dihydropyrimidine-4-carboxamide], for which the 50% inhibitory concentration (IC50) in experiment [1] is 10000 to 100000 nM; in experiment [2], 100 to 1000 nM.
